Test results from article PMC5878090 (Journal of controlled release : official journal of the …, 2015).

Experiments:
U87MG cells [1] = experiment: Anti-proliferation assay; assay type: cell-based; settings: Homo sapiens, U-87 MG, 72 h, read-out: anti-proliferation IC50
U87MG cells [2] = experiment: Cell-cycle analysis; assay type: cell-based, human; settings: 10 µM, 24 h, PI labeling
[3] = test system: U87MG subcutaneous xenografts; experiment: Anti-glioblastoma study in subcutaneous U87MG tumor model; assay type: in vivo, Balb/c nude mice; settings: 50 mg/kg oral every 2 days until 9th day, n = 8; saline 8.3-fold
Integrin αvβ3 = Integrin αvβ3 (UniProt P06756); experiment: SPR

Q: How did the IC50 (U87MG cells [1]) turn out when `COc1ccc(C2=N[C@@H](c3ccc(Cl)cc3)[C@@H](c3ccc(Cl)cc3)N2C(=O)N2CCNC(=O)C2)c(OC(C)C)c1` [Nutlin-3] was run?
A: 7.6 µM

Q: And the cell-cycle arrest (U87MG cells [2])?
A: effective cell-cycle arrest in the G1 and G2 phases

Q: How did the “tumor size fold increase on day 14 versus start of treatment” value [3] turn out when `Cn1nnc2c(C(N)=O)ncn2c1=O` [TMZ, temozolomide] was run?
A: 0.3 fold

Q: How did the Kd (Integrin αvβ3) turn out when “c(RGDyK)-conjugated poly(ethylene glycol)-block-poly(lactic acid) micelle carrying the sPMI peptide” was run?
A: 4.05 µM
